Measured values from patent US9174969B2, “Indoline scaffold SHP-2 inhibitors and cancer treatment method” (UNIVERSITY OF SOUTH FLORIDA, priority 2008, dated 2015).

Biological target: Shp2 (Homo sapiens (Human), UniProt Q06124)
Assay: in vitro phosphotyrosine phosphatase activity (DiFMUP) assay
Format: biochemical
Settings: mean ± spread over n tests
Description: All reagents were purchased from commercial suppliers and used without further purification. Melting points were determined using a Barnstead international melting point apparatus and remain uncorrected. ^1H NMR spectra were recorded on a Varian Mercury 400 MHz spectrometer with CDCl3 or DMSO-d6 as the solvent. ^13C NMR spectra are recorded at 100 MHz. All coupling constants are measured in Hertz (Hz) and the chemical shifts (δH and δC) are quoted in parts per million (ppm) relative to TMS (δ0), which was used as the internal standard. High resolution mass spectroscopy was carried out on an Agilent 6210 LC/MS (ESI-TOF). Microwave reactions were performed in CEM 908005 model and Biotage initiator 8 machines. HPLC analysis was performed using a JASCO HPLC system equipped with a PU-2089 Plus quaternary gradient pump and a UV-2075 Plus UV-VIS detector, using an Alitech Kromasil C-18 column (150×4.6 mm, 5 μm). Thin layer chromatography was performed using silica gel 60 F254 plates (Fisher), with observation under UV when necessary. Anhydrous solvents (acetonitrile, dimethyl formamide, ethanol, isopropanol, methanol and tetrahydrofuran) were used as purchased from Aldrich. HPLC grade solvents (methanol, acetonitrile and water) were purchased from Burdick and Jackson for HPLC and mass analysis.

Chain of Shp2 (Q06124 whole entry): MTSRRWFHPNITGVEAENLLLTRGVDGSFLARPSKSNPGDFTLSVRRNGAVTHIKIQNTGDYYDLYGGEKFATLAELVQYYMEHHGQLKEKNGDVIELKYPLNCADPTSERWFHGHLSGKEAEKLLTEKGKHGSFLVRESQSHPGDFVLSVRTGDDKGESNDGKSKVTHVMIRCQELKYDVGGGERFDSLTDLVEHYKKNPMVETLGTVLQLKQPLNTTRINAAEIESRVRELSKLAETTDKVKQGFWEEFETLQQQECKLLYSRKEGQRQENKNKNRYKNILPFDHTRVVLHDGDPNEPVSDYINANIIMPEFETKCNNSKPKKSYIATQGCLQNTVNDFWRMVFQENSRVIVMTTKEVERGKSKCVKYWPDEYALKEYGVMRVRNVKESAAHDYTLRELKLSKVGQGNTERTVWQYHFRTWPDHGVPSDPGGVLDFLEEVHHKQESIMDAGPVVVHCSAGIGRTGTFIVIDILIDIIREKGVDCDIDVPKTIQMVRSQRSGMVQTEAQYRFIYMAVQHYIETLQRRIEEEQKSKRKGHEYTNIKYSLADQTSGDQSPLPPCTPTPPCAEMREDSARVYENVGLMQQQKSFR

**Q.** For `COCC(=O)N1CCc2cc(S(=O)(=O)N3CCN(c4cccc(Cl)c4)CC3)ccc21` [JHE-01-169, 1-(5-(4-(3-Chlorophenyl)piperazin-1-ylsulfonyl)indolin-1-yl)-2-methoxyethanone], which IC50 is on record?
**A.** 9.6 ± 2.4 µM

**Q.** `COc1cccc(N2CCN(S(=O)(=O)c3ccc4c(c3)CCN4C(=O)CCC(=O)O)CC2)c1` [XW2-038F, 4-(5-(4-(3-Methoxyphenyl)piperazin-1-ylsulfonyl)indolin-1-yl)-4-oxobutanoic acid] was tested. Which IC50 did it give?
**A.** 4.7 ± 4.4 µM

**Q.** Which IC50 does the source give for `O=C(O)CCC(=O)N1CCc2cc(S(=O)(=O)N3CCN(c4ccccc4F)CC3)ccc21` [XW2-038D, 4-(5-(4-(2-Fluorophenyl)piperazin-1-ylsulfonyl)indolin-1-yl)-4-oxobutanoic acid] here?
**A.** 34.6 ± 12.6 µM

**Q.** Which IC50 does the source give for `O=C(O)C1CC=CCC1C(=O)N1CCc2cc(S(=O)(=O)N3CCN(c4cccc(Cl)c4)CC3)ccc21` (centres unmarked) [JHE-02-007, 6-(5-(4-(3-Chlorophenyl)piperazin-1-ylsulfonyl)indoline-1-carbonyl)cyclohex-3-enecarboxylic acid] here?
**A.** 20.3 ± 4.3 µM

**Q.** How did the IC50 turn out when `O=C(Nc1ccc(Cl)cc1)N1CCc2cc(S(=O)(=O)N3CCN(c4cccc(Cl)c4)CC3)ccc21` [JHE-02-065A, N-(4-Chlorophenyl)-5-(4-(3-chlorophenyl)piperazin-1-ylsulfonyl)indoline-1-carboxamide] was run?
**A.** 19.1 ± 5.1 µM

**Q.** How did the IC50 turn out when `O=C(O)c1ccccc1NC(=O)N1CCc2cc(S(=O)(=O)N3CCN(c4cccc(Cl)c4)CC3)ccc21` [JHE-02-020A, 2-(5-(4-(3-Chlorophenyl)piperazin-1-ylsulfonyl)indoline-1-carboxamido)benzoic acid] was run?
**A.** 8.3 ± 5.6 µM

**Q.** Which IC50 does the source give for `O=C(O)CCC(=O)N1CCc2cc(S(=O)(=O)N3CCN(c4cc(C(F)(F)F)cc(C(F)(F)F)c4)CC3)ccc21` [XW2-119, 4-(5-(4-(3,5-Bis(trifluoromethyl)phenyl)piperazin-1-ylsulfonyl)indolin-1-yl)-4-oxobutanoic acid] here?
**A.** 9.1 ± 1.6 µM

**Q.** For `O=C(O)CCC(=O)N1CCc2cc(S(=O)(=O)N3CCN(c4cc(Cl)cc(Cl)c4)CC3)ccc21` [XW2-124B, 4-(5-(4-(3,5-Dichlorophenyl)piperazin-1-ylsulfonyl)indolin-1-yl)-4-oxobutanoic acid], which IC50 is on record?
**A.** 4.5 ± 1.2 µM

**Q.** With `O=C(O)CNC(=O)N1CCc2cc(S(=O)(=O)N3CCN(c4cccc(Cl)c4)CC3)ccc21` [JHE-01-137, 2-(5-(4-(3-Chlorophenyl)piperazin-1-ylsulfonyl)indoline-1-carboxamido)acetic acid] as the compound, how does the IC50 read?
**A.** 4.6 ± 0.3 µM

**Q.** For `CCOC(=O)C(Cc1ccccc1)NC(=O)N1CCc2cc(S(=O)(=O)N3CCN(c4cccc(Cl)c4)CC3)ccc21` (centres unmarked) [JHE-02-014, Ethyl 2-(5-(4-(3-chlorophenyl)piperazin-1-ylsulfonyl)indoline-1-carboxamido)-3-phenylpropanoate], which IC50 is on record?
**A.** 6.9 ± 4.2 µM

**Q.** For `CC(C)CC(NC(=O)N1CCc2cc(S(=O)(=O)N3CCN(c4cccc(Cl)c4)CC3)ccc21)C(=O)O` (centres unmarked) [JHE-02-019A, 2-(5-(4-(3-Chlorophenyl)piperazin-1-ylsulfonyl)indoline-1-carboxamido)-4-methylpentanoic acid], which IC50 is on record?
**A.** 4.5 ± 3.5 µM

**Q.** `COc1cccc(NC(=O)N2CCc3cc(S(=O)(=O)N4CCN(c5cccc(Cl)c5)CC4)ccc32)c1` [JHE-02-032B, 5-(4-(3-Chlorophenyl)piperazin-1-ylsulfonyl)-N-(3-methoxyphenyl)indoline-1-carboxamide] was tested. Which IC50 did it give?
**A.** 9.9 ± 3.5 µM

**Q.** Which IC50 does the source give for `O=C(O)/C=C\C(=O)N1CCc2cc(S(=O)(=O)N3CCN(c4cccc(Cl)c4)CC3)ccc21` [JHE-01-129A, (Z)-4-(5-(4-(3-Chlorophenyl)piperazin-1-ylsulfonyl)indolin-1-yl)-4-oxobut-2-enoic acid] here?
**A.** 2.8 ± 0.7 µM

**Q.** With `O=C(O)CC[C@H](NC(=O)N1CCc2cc(S(=O)(=O)N3CCN(c4cccc(Cl)c4)CC3)ccc21)C(=O)O` [JHE-02-052, (S)-2-(5-(4-(3-Chlorophenyl)piperazin-1-ylsulfonyl)indoline-1-carboxamido)pentanedioic acid] as the compound, how does the IC50 read?
**A.** 37.6 ± 13.8 µM

**Q.** How did the IC50 turn out when `O=C(O)CCC(=O)N1CCc2cc(S(=O)(=O)N3CCN(c4ccc(Cl)c(Cl)c4)CC3)ccc21` [XW2-036, 4-(5-(4-(3,4-Dichlorophenyl)piperazin-1-ylsulfonyl)indolin-1-yl)-4-oxobutanoic acid] was run?
**A.** 4.6 ± 2.4 µM

**Q.** How did the IC50 turn out when `O=C(c1ccc(Cl)cc1Cl)N1CCc2cc(S(=O)(=O)N3CCN(c4cccc(Cl)c4)CC3)ccc21` [JF024, (5-(4-(3-Chlorophenyl)piperazin-1-ylsulfonyl)indolin-1-yl)(2,4-dichlorophenyl)methanone] was run?
**A.** 7.6 ± 1.3 µM

**Q.** Which IC50 does the source give for `O=C(Nc1ccc(F)cc1)N1CCc2cc(S(=O)(=O)N3CCN(c4cccc(Cl)c4)CC3)ccc21` [JF038, 5-(4-(3-Chlorophenyl)piperazin-1-ylsulfonyl)-N-(4-fluorophenyl)indoline-1-carboxamide] here?
**A.** 12.6 ± 5.4 µM

**Q.** `CCOC(=O)C(NC(=O)N1CCc2cc(S(=O)(=O)N3CCN(c4cccc(Cl)c4)CC3)ccc21)C(C)C` (centres unmarked) [JHE-02-010C, Ethyl 2-(5-(4-(3-chlorophenyl)piperazin-1-ylsulfonyl)indoline-1-carboxamido)-3-methylbutanoate] was tested. Which IC50 did it give?
**A.** 7.7 ± 2.4 µM

**Q.** How did the IC50 turn out when `CCOC(=O)C(CC(C)C)NC(=O)N1CCc2cc(S(=O)(=O)N3CCN(c4cccc(Cl)c4)CC3)ccc21` (centres unmarked) [JHE-02-012, Ethyl 2-(5-(4-(3-chlorophenyl)piperazin-1-ylsulfonyl)indoline-1-carboxamido)-4-methylpentanoate] was run?
**A.** 6 ± 2.8 µM

**Q.** `O=C(c1ccccc1)N1CCc2cc(S(=O)(=O)N3CCN(c4cccc(Cl)c4)CC3)ccc21` [JF022, (5-(4-(3-Chlorophenyl)piperazin-1-ylsulfonyl)indolin-1-yl)(phenyl)methanone] was tested. Which IC50 did it give?
**A.** 8.4 ± 2.3 µM

**Q.** `O=C(Nc1ccccc1Cl)N1CCc2cc(S(=O)(=O)N3CCN(c4cccc(Cl)c4)CC3)ccc21` [JHE-02-065B, N-(2-Chlorophenyl)-5-(4-(3-chlorophenyl)piperazin-1-ylsulfonyl)indoline-1-carboxamide] was tested. Which IC50 did it give?
**A.** 3.2 ± 0.5 µM

**Q.** With `O=C(Nc1ccc(Cl)c(Cl)c1)N1CCc2cc(S(=O)(=O)N3CCN(c4cccc(Cl)c4)CC3)ccc21` [JHE-02-068A, 5-(4-(3-Chlorophenyl)piperazin-1-ylsulfonyl)-N-(3,4-dichlorophenyl)indoline-1-carboxamide] as the compound, how does the IC50 read?
**A.** 5.7 ± 2.5 µM

**Q.** `O=C(C1CC1)N1CCc2cc(S(=O)(=O)N3CCN(c4cccc(Cl)c4)CC3)ccc21` [JF027, (5-(4-(3-Chlorophenyl)piperazin-1-ylsulfonyl)indolin-1-yl)(cyclopropyl)methanone] was tested. Which IC50 did it give?
**A.** 8.5 ± 2 µM

**Q.** For `O=C(Cc1ccc(Cl)cc1)N1CCc2cc(S(=O)(=O)N3CCN(c4cccc(Cl)c4)CC3)ccc21` [JHE-02-063B, 2-(4-Chlorophenyl)-1-(5-(4-(3-chlorophenyl)piperazin-1-ylsulfonyl)indolin-1-yl)ethanone], which IC50 is on record?
**A.** 8 ± 1.9 µM

**Q.** How did the IC50 turn out when `O=C(c1cccc(Cl)c1)N1CCc2cc(S(=O)(=O)N3CCN(c4cccc(Cl)c4)CC3)ccc21` [JF020, (3-Chlorophenyl)(5-(4-(3-chlorophenyl)piperazin-1-ylsulfonyl)indolin-1-yl)methanone] was run?
**A.** 5.7 ± 3.9 µM

**Q.** `O=C(Nc1ccccc1C(F)(F)F)N1CCc2cc(S(=O)(=O)N3CCN(c4cccc(Cl)c4)CC3)ccc21` [JF040, 5-(4-(3-Chlorophenyl)piperazin-1-ylsulfonyl)-N-(2-(trifluoromethyl)phenyl)indoline-1-carboxamide] was tested. Which IC50 did it give?
**A.** 9 ± 1.7 µM

**Q.** Which IC50 does the source give for `Cc1ccc(N2CCN(S(=O)(=O)c3ccc4c(c3)CCN4C(=O)CCC(=O)O)CC2)cc1Cl` [XW3-006, 4-(5-(4-(3-Chloro-4-methylphenyl)piperazin-1-ylsulfonyl)indolin-1-yl)-4-oxobutanoic acid] here?
**A.** 16.6 ± 3.6 µM

**Q.** Which IC50 does the source give for `O=C(O)C(=O)N1CCc2cc(S(=O)(=O)N3CCN(c4cccc(Cl)c4)CC3)ccc21` [JHE-01-155B, 2-(5-(4-(3-Chlorophenyl)piperazin-1-ylsulfonyl)indolin-1-yl)-2-oxoacetic acid] here?
**A.** 4.8 ± 2.8 µM

**Q.** `O=C(O)C(Cc1ccccc1)NC(=O)N1CCc2cc(S(=O)(=O)N3CCN(c4cccc(Cl)c4)CC3)ccc21` (centres unmarked) [JHE-02-019B, 2-(5-(4-(3-Chlorophenyl)piperazin-1-ylsulfonyl)indoline-1-carboxamido)-3-phenylpropanoic acid] was tested. Which IC50 did it give?
**A.** 5.4 ± 2.7 µM

**Q.** How did the IC50 turn out when `O=C(C1CCCC1)N1CCc2cc(S(=O)(=O)N3CCN(c4cccc(Cl)c4)CC3)ccc21` [JF026, (5-(4-(3-Chlorophenyl)piperazin-1-ylsulfonyl)indolin-1-yl)(cyclopentyl)methanone] was run?
**A.** 6.9 ± 2.2 µM

**Q.** How did the IC50 turn out when `COc1cccc(C(=O)N2CCc3cc(S(=O)(=O)N4CCN(c5cccc(Cl)c5)CC4)ccc32)c1` [JHE-02-035A, (5-(4-(3-chlorophenyl)piperazin-1-ylsulfonyl)indolin-1-yl)(3-methoxyphenyl)methanone] was run?
**A.** 8.1 ± 0.8 µM

**Q.** For `Cc1ccc(Cl)cc1N1CCN(S(=O)(=O)c2ccc3c(c2)CCN3C(=O)CCC(=O)O)CC1` [XW2-125B, 4-(5-(4-(5-Chloro-2-methylphenyl)piperazin-1-ylsulfonyl)indolin-1-yl)-4-oxobutanoic acid], which IC50 is on record?
**A.** 1.5 µM

**Q.** With `O=C(c1ccc(Cl)cc1)N1CCc2cc(S(=O)(=O)N3CCN(c4cccc(Cl)c4)CC3)ccc21` [JF021, (4-Chlorophenyl)(5-(4-(3-chlorophenyl)piperazin-1-ylsulfonyl)indolin-1-yl)methanone] as the compound, how does the IC50 read?
**A.** 10.4 ± 2 µM

**Q.** With `O=C(O)CCC(=O)N1CCc2cc(S(=O)(=O)N3CCN(c4cccc(F)c4)CC3)ccc21` [XW2-124A, 4-(5-(4-(3-Fluorophenyl)piperazin-1-ylsulfonyl)indolin-1-yl)-4-oxobutanoic acid] as the compound, how does the IC50 read?
**A.** 13.2 ± 3.6 µM

**Q.** How did the IC50 turn out when `O=C(Nc1cccc(Cl)c1)N1CCc2cc(S(=O)(=O)N3CCN(c4cccc(Cl)c4)CC3)ccc21` [JHE-02-032A, N-(3-Chlorophenyl)-5-(4-(3-chlorophenyl)piperazin-1-ylsulfonyl)indoline-1-carboxamide] was run?
**A.** 8.3 ± 3.4 µM
